In patent EP4740946A1, “METHOD FOR TREATING PROSTATE CANCER” (Jiangsu Hengrui Pharmaceuticals Co., Ltd., priority 2023, dated 2025):

Columns and labels:
Format in all cases: in vivo, human
[1] = Phase I clinical study, clinical safety (DLT, TEAEs, treatment-related AEs)
Description: • Incidence of dose limiting toxicity (DLT) • MTD (if available) and RP2D;
(§1) • Incidence, severity (graded according to CTCAE v5.0), and correlation with the study drug of adverse events (AEs) and serious adverse events (SAEs), also including abnormalities in vital signs, electrocardiogram, and laboratory tests; • PK parameters of the compound of formula I after single/multiple administrations, including but not limited to: • single administration parameters: peak plasma concentration (Cmax), time to peak (Tmax), area under the concentration-time curve from time zero to the last detectable concentration time point t (AUC0-t), area under the concentration-time curve from time zero to infinity (AUC0-inf) (if applicable), half-life (t1/2) (if applicable), apparent volume of distribution (Vz/F) (if applicable), and apparent clearance (CL/F) (if applicable); • multiple administration parameters: steady-state peak concentration (Cmax, ss), time to peak (Tmax, ss), steady-state trough concentration (Cmin, ss), area under the steady-state plasma concentration-time curve (AUCss), and drug accumulation ratio (Rac). • Pharmacokinetic (PK) of midazolam: pharmacokinetic parameters of midazolam in patients after administration of a microdose of midazolam before (D-1) and after (D15) multiple oral administrations of the compound of formula I, including: Tmax, Cmax, AUC0-t, AUCO-∞, t1/2, CL/F and Vz/F. • Efficacy endpoints: objective response rate (ORR), disease control rate (DCR), duration of response (DoR), radiographic progression-free survival (rPFS), PSA response rate at week 12, proportions of subjects with a decrease in PSA of ≧50% and ≧30% from baseline throughout study treatment, time to PSA progression, and overall survival (OS).
(§2) • Tablets were orally administered in preset dose group of 30 mg, 90 mg, 180 mg, 360 mg, 540 mg or 720 mg, with one treatment cycle every 28 days. Administration was continuous until disease progression or the occurrence of unacceptable toxicity. Tablets were orally administered once daily, within 30 minutes after breakfast each morning, for consecutive administration. If intensive PK blood sampling was scheduled on a given day, the subject was forbidden to drink water 1 h and fasted 4 h before and after drug administration.
A total of 26 tumour subjects were enrolled in this study, with 13 subjects in the dose escalation phase. There were 1, 4, 4, 3, and 1 subject(s) in 30 mg, 90 mg, 180 mg, 360 mg, and 540 mg dose groups, respectively. […] One subject was enrolled in the 540 mg dose group and remained in DLT observation, and no dose-limiting toxicity (DLT) was observed. There were 13 subjects in the dose expansion phase, and all were in the 180 mg dose group.

PSA = test: Phase I clinical study, clinical effectiveness (PSA response)
Description: as §1, §2
A total of 17 subjects in the study received at least one post-baseline PSA test, with 1, 4, 9, and 3 subjects in 30 mg, 90 mg, 180 mg, and 360 mg dose groups, respectively. 8 of 17 subjects evaluable for PSA response experienced a PSA decrease.

[2] = Phase I clinical study, clinical pharmacology: food effect study (fasting vs postprandial pharmacokinetics)
Experimental: as §2
There were a total of 9 patients in the food effect study.

[3] = 180 mg oral administration under fasting conditions, patients with mCRPC
[4] = postprandial absorption compared with fasting state, food effect study

C[C@H]1CC2(CCN(c3ccc(C(=O)N4CCC(CN5CCN(c6cccc(N[C@H]7CCC(=O)NC7=O)c6)CC5)CC4)cc3F)CC2)CN1c1ccc(C#N)c(Cl)c1 [compound of formula I]
subjects who experienced AEs associated with formula I ([1]; 8 of 26 subjects): 30.8%
subjects who experienced TEAEs ([1]; 9 of 26 tumour subjects enrolled): 34.6%
dose-limiting toxicity (DLT) ([1]; dose escalation phase, 13 subjects, 30 mg, 90 mg, 180 mg, 360 mg and 540 mg dose groups, oral once daily): no DLT was observed
grade 4/5 AE ([1]; during the study, 26 subjects): No grade 4/5 AE occurred
subjects who experienced grade 3 TRAE ([1]; one of 26 subjects, decreased neutrophil count and decreased white blood cell count): 3.8%
subjects who experienced grade 3 TEAEs ([1]; three of 26 subjects): 11.5%
subjects who experienced a PSA decrease (PSA; 180 mg dose group, 6 of the 9 subjects): 66.7%
subjects achieving PSA30 (a reduction in serum PSA level of ≧ 30% from baseline during treatment) (PSA; 180 mg dose group, 9 subjects): 3 subjects
subjects achieving PSA90 (a reduction in serum PSA level of ≧ 90% from baseline during treatment) (PSA; 180 mg dose group, 9 subjects): 1 subject
subjects who experienced a PSA decrease (PSA; of 17 subjects evaluable for PSA response, 30 mg, 90 mg, 180 mg and 360 mg dose groups): 8 subjects
geometric mean (% geometric coefficient of variation) of apparent volume of distribution [2, 3]: 1260 (90.7) L
geometric mean (% geometric coefficient of variation) of clearance [2, 3]: 21.5 (83.4) L/h
median time to peak [2, 3]: 3 h
half-life ([2]; male, human, plasma, 180 mg oral administration under fasting conditions, patients with mCRPC, food effect study (9 patients), read-out: mean half-life (± standard deviation) (converted)): 40.8 ± 4.37 h
AUC, postprandial versus fasting state [2, 4]: 2.54 fold
Cmax, postprandial versus fasting state [2, 4]: 3.06 fold
time to peak delayed (postprandial versus fasting) ([2]; postprandial compared with fasting state): 3 h
time to peak, postprandial ([2]; postprandial state): about 6 h
